Data as given in paper PMC9131275, “Drug-induced self-assembled nanovesicles for doxorubicin resistance reversal via autophagy inhibition and delivery synchronism” (Theranostics, 2022).
Where a name gives a salt, the structure may show the parent alone. Read-outs that look alike come from different tables or passages of the source.

Tests used:
K562 cells = assay: Cytotoxicity by CCK-8 kit, 48 h; assay type: cell-based; details: Homo sapiens
Experimental: (§1) The cytotoxicity of free DOX·HCl, free CQ, physical mixture of free DOX·HCl and CQ (DC), physical mixture of PPAP and cholesteryl hemisuccinate (PPAP/C) and drug-loaded nanovesicles on MCF-7 cells, MCF-7/ADR cells, K562 cells or K562/ADR cells was investigated at 48 h via CCK-8 kit. Accordingly, the reversal index (RI) of DOX·HCl for MCF-7/ADR cells and K562/ADR cells was calculated using the following formula: RI = […]. The combination index (CI) between DOX⋅HCl and CQ at different ratios was calculated as follows: CI = D1/(Dm)1 + D2/(Dm)2 + D1*D2/(Dm)1*(Dm)2, where D1 and (Dm)1 represent the IC50 values of DOX⋅HCl applied in combination or alone, respectively, and D2 and (Dm)2 represent the IC50 values of CQ applied in combination or alone, respectively. In addition, apoptosis analysis was implemented using the Annexin V-FITC/PI kit (LianKe, China) based on the kit instructions. The details were provided by Supplementary Material (Supplementary section 1). […]
(§2) Cytotoxicity and annexin V-FITC/PI apoptosis assay
(§3) To investigate the cytotoxicity of free DOX·HCl, free CQ, physical mixture of free DOX·HCl and CQ, PPAP/C and drug-loaded nanovesicles, various cell lines (MCF-7, […]
(§4) cells/well, respectively, and cultured in RPMI 1640 containing 10 % fetal bovine serum […]
(§5) at 37 °C with 5 % CO2. After 24 h, cells were exposed to increasing concentrations of different formulations for 48 h. Then, 10 µL of CCK-8 reagent was added to each well and the plates were incubated for 2 h. And the absorbency was determined by a microplate reader (Thermo, USA) at 450 nm. […]
(§6) Afterwards, rhodamine 123 (2 µg/mL) was incubated with these cells for 30 […]
(§7) minutes at 37°C . […]
(§8) 104 cells was collected for each sample at the appropriate period.

MCF-7 cells = assay: Cytotoxicity by CCK-8 kit, 48 h; assay type: cell-based; details: Homo sapiens
Experimental: as §1, §2, §3, §4, §5, §6, §7, §8

MCF-7/ADR cells [1] = assay: Annexin V-FITC/PI apoptosis assay; assay type: cell-based, human; details: 5 μg/mL DOX·HCl and/or 10 µg/mL CQ, 48 h
K562/ADR cells [2] = assay: Annexin V-FITC/PI apoptosis assay; assay type: cell-based, human; details: 5 μg/mL DOX·HCl and/or 10 µg/mL CQ, 48 h
P-gp = target: T1, P-gp (Homo sapiens, UniProt P08183); assay: P-gp functional activity (rhodamine 123 accumulation, flow cytometry); assay type: cell-based; details: MCF-7/ADR and K562/ADR cells, increasing CQ concentrations
T1 construct: the extremely high expression of P-gp existed in MCF-7/ADR cells and K562/ADR cells; host or cells: MCF-7/ADR and K562/ADR cells
T1 sequence (P08183 whole entry): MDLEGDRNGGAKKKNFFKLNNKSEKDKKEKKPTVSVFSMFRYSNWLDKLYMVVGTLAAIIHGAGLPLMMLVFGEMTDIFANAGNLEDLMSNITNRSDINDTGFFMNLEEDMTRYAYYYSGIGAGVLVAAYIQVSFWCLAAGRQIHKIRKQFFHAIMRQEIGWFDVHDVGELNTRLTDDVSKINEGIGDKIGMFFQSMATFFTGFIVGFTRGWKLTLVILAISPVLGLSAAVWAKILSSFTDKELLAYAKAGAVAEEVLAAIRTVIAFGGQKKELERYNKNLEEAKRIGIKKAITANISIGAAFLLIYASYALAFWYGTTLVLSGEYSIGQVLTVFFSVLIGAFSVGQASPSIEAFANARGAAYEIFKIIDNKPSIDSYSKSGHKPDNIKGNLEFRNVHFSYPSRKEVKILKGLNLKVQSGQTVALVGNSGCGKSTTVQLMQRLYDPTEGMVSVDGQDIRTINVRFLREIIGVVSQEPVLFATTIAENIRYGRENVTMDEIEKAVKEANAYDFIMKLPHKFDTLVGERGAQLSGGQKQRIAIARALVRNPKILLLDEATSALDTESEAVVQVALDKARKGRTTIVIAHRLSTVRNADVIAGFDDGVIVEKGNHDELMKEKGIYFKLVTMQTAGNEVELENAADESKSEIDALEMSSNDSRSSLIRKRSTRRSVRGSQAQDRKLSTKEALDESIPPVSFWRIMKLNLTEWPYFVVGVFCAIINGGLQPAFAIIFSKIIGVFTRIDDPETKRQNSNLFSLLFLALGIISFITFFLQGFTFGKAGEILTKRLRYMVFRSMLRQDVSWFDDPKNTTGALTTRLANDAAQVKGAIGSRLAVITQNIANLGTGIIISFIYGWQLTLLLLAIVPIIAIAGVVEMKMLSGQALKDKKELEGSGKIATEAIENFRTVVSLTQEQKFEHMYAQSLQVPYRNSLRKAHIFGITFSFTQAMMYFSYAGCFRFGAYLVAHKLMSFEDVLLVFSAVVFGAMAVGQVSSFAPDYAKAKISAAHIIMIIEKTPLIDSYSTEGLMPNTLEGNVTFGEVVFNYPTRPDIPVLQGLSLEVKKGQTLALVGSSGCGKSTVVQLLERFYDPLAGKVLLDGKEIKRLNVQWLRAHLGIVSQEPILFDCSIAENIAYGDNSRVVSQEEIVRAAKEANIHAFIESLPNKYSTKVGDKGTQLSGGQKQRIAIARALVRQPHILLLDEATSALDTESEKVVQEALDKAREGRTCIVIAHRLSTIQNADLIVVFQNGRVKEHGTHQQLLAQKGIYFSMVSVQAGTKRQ
Experimental: as §5, with “nm. Data are reported as means of triplicate” for “nm.”
The apoptosis analysis was further investigated. Briefly, MCF-7/ADR or K562/MDR cells (2 × 10^5 cells/well) were seeded in 12-well plates and incubated overnight in RPMI 1640 containing 10 % fetal bovine serum. Afterwards, the cells were incubated with various formulations for 48 h at the final DOX·HCl and CQ concentration of 5 and 10 µg/mL, respectively. The cells were treated according to the kit instructions and analyzed by flow cytometry.
P-gp functional activity evaluation
Flow cytometry analysis was used to investigate the effect of CQ on the functional activity of P-gp through monitoring the intracellular uptake of rhodamine 123, namely, a kind of P-gp substrate. Specifically, MCF-7/ADR cells and K562/ADR cells (2 × 10^5 cells/well) were seeded in 12-well plates, respectively. […] Then the cell suspension was analyzed by flow cytometry with the 488 nm argon ion laser. Also, the individual fluorescence of 104 cells was collected for each sample at the appropriate period.

[3] = ref [20], [21]; cited from earlier work
MCF-7/ADR cells [4] = assay: Cytotoxicity by CCK-8 kit, 48 h; assay type: cell-based, human
Experimental: (§10) Accordingly, the reversal index (RI) of DOX·HCl for MCF-7/ADR cells and K562/ADR cells was calculated using the following formula: RI = IC50 of the test formulation / IC50 of free DOX·HCl.
(§11) at 37 °C with 5 % CO2. After 24 h, cells were exposed to increasing concentrations of different formulations for 48 h. Then, 10 µL of CCK-8 reagent was added to each well and the plates were incubated for 2 h. And the absorbency was determined by a microplate reader (Thermo, USA) at 450 nm. Data are reported as means of triplicate

K562/ADR cells [5] = assay: Cytotoxicity by CCK-8 kit, 48 h; assay type: cell-based, human
Experimental: as §10, §11

K562/ADR tumors = assay: In vivo anti-tumor activity; parameters: species or system BALB/c nude mice; details: K562/ADR tumor-bearing nude mice, i.v. at 0, 2, 4 and 6 days, Day 16
Experimental: (§9) The BALB/c nude mice were subcutaneously inoculated with K562/ADR cells (2×10^7 cells) on the right flank to construct K562/ADR tumor-bearing mice models. After 10 days, mice were randomly divided into seven groups (n = 5) once the tumors reached about 80 mm^3. And then various formulations were injected intravenously through the tail vein every other day for four times and saline was taken as the control group. […] Later, the mice were sacrificed and the tumors were excised and weighted. In addition, tumors and major organs (heart, liver, spleen, lung, and kidney) were collected for slice analysis by hematoxylin and eosin (H&E) staining. The tumors were also analyzed by immunohistochemical detection of Ki67, immunofluorescence assay of LC3 and terminal deoxynucleotidyl transferased dUTP nick end labeling (TUNEL) assay.

[6] = mouse, in vivo
Experimental: as §9

| Structure (SMILES) | IC50 (K562 cells; K562, 48 h) [µg/mL] | IC50 (MCF-7 cells; MCF7, 48 h) [µg/mL] | Apoptosis rate (MCF-7/ADR cells [1]) [%] | Apoptosis rate (K562/ADR cells [2]) [%] | effect on efflux activity of P-gp (rhodamine 123 accumulation) (P-gp) | plasma protein binding rate [3] [%] | IC50 (MCF-7/ADR cells [4]; Homo sapiens, NCI/ADR-RES, MCF-7/ADR cells, 48 h, read-out: IC50 of DOX·HCl) [µg/mL] | DOX·HCl-resistance index (MCF-7/ADR cells [4]; MCF-7/ADR cells vs sensitive cells) [fold] | IC50 (K562/ADR cells [5]; Homo sapiens, K562/ADR cells, 48 h, read-out: IC50 of DOX·HCl) [µg/mL] | DOX·HCl-resistance index (K562/ADR cells [5]; K562/ADR cells vs sensitive cells) [fold] | IC50 (K562 cells; K562 cells, within 48 h, read-out: IC50) [µg/mL] | IC50 (MCF-7 cells; MCF7, MCF-7 cells, within 48 h, read-out: IC50) [µg/mL] | tumor inhibition rate (TIR) (K562/ADR tumors) [%] | body weight change during treatment [6] | histopathological abnormalities of hearts (H&E) [6] |
| --- | --- | --- | --- | --- | --- | --- | --- | --- | --- | --- | --- | --- | --- | --- | --- |
| CCN(CC)CCCC(C)Nc1ccnc2cc(Cl)ccc12 (centres unmarked) [CQ, Chloroquine] | 17.4 ± 1.34 | 23.9 ± 0.42 | 33.64 | 40.17 | can inhibit the efflux activity of P-gp | 60 |  |  |  |  |  |  |  |  |  |
| COc1cccc2c1C(=O)c1c(O)c3c(c(O)c1C2=O)C[C@@](O)(C(=O)CO)C[C@@H]3O[C@H]1C[C@H](N)[C@H](O)[C@H](C)O1 [DOX·HCl, Doxorubicin hydrochloride] |  |  | 40.83 | 42.56 |  |  | 72.1 | 902 | 18.9 | 126 | 0.15 ± 0.06 | 0.08 ± 0.01 | 28.80 | sharp decrease in body weight | severe histopathological abnormalities and lesions in the cardiac muscles |
